Laboratory results published in article PMC11840605, “Crystallographic and Thermodynamic Evidence of Negative Coupling in the Flavin-Dependent Tryptophan Halogenases AbeH and BorH” (ACS Omega, 2025).
Entries after “also recorded” stand apart in the source; their conditions may differ. Like-named read-outs stand apart in the source and are kept apart here.

Key:
Format in all cases: binding, uncultured soil actinomycetes
[1] = target: AbeH (uncultured bacterium, UniProt F6LWA5); assay: Isothermal titration calorimetry, ligand into AbeH
Experimental: (§1) ITC experiments were performed using a VP-ITC isothermal titration calorimeter (MicroCal) in 20 mM HEPES pH 7.5, 350 mM NaCl, 1 mM ethylenediamine tetraacetic acid (EDTA) and 15% (v/v) glycerol. Solutions of AbeH, BorH, FAD (Chem-Implex), and Trp (Acros Organics) were prepared in the same buffer and degassed under vacuum at 30 °C for 20 min before loading in the syringe or cell. To analyze formation of binary complexes, AbeH or BorH was placed inside the cell, and ligand (FAD or Trp) was injected. For ternary complex titration, one ligand was preincubated with the macromolecule for 30 min at 30 °C to form binary complexes of AbeH/FAD, AbeH/Trp, BorH/FAD, and BorH/Trp before titrating with the second ligand. To test FADH2 binding to AbeH and BorH, FAD was reduced to FADH2 using sodium dithionite and stored under N2. Formation of FADH2 by sodium dithionite was verified using absorbance and fluorescence spectrophotometry.
(§2) ITC experiments were performed with reference power set to 10 μcal/s and Milli-Q water in the reference cell. All experiments were done with a pretitration delay of 20 min, a 5 min interval between injections, and a filter period of 2 s in high feedback gain mode. All experiments were performed at 310 rpm to mix the components in cell and titrant. All other VP-ITC instrumental parameters were set to default settings. Heats of dilution for all titrants were measured by titrating ligand into buffer for binary complex titrations, and by titrating ligand into a solution containing the other ligand but no protein for ternary complex titration.
1.2 mM FAD (2 μL/1 and 5 μL/19 injections) into 18 μM AbeH (Figure 4A)
0.12 mM FADH2 (2 μL/1 and 15 μL/19 injections) into 7 μM AbeH in the presence of sodium dithionite (Figure 4B)
1.4 mM Trp (3 μL/1 and 10 μL/29 injections) into 43 μM AbeH (Figure S7)
16 mM Trp (2 μL/1 and 10 μL/29 injections) into 18 μM AbeH (Figure 5A)
(§3) Titrations were analyzed by manually integrating each injection, subtracting the heat of dilution, and carrying out nonlinear least-squares fit of the calorimetric binding data to a one-site model using Origin 7.0 (Origin Lab). Trp binding experiments were subtracted by point-by-point heat of dilution, and FAD and FADH2 binding experiments were subtracted using the mean heat of the last three injections. For the Trp binding data, n was fixed to 1 based on expected stoichiometry of 1:1 based on FDH crystal structures and as proposed for lower c-value titrations in the literature.[23],[25],[82] The other parameters were not constrained during fitting.

[2] = target: AbeH/Trp (uncultured bacterium, UniProt F6LWA5); assay: FAD fluorescence quenching titration with AbeH preincubated with Trp
Experimental: Quenching of FAD fluorescence quenching upon binding to AbeH was measured in the absence and presence of Trp in 20 mM Tris-HCl pH 8.0 and 100 mM NaCl using a Quantmaster 40 fluorimeter (Photon Technologies International). Trp and FAD solutions were prepared in 20 mM Tris-HCl pH 8, and concentrations were determined by absorbance at 280 and 450 nm, respectively. FAD fluorescence was measured using excitation at 450 nm (4 nm slit opening) and emission set at 525 nm (6 nm slit opening) using a fluorescence cuvette to collect 50 scans, which were averaged later during data processing in Microsoft Excel. […] Raw fluorescence intensities were corrected for the buffer, Trp, and AbeH background contributions. Quenched fluorescence intensity was plotted vs AbeH concentration and fit to eq 1 using GraphPad Prism 8.0 by nonlinear regression analysis. In eq 1, F = fractional saturation, ΔF = fluorescence quenching upon AbeH/FAD complex formation (calculated from the difference of FAD fluorescence intensity at different AbeH concentration), ΔFmax = maximum fluorescence change obtained from fit, [AbeHFAD] = FAD-bound AbeH, [AbeH]T = Total AbeH concentration, [FAD]T = Total FAD concentration, KD = equilibrium dissociation constant. […]
A. Fluorescence quenching observed from binding of Apo-AbeH ([…]) to […] FAD; […]

[3] = target: BorH (uncultured bacterium, UniProt M9QSI0); assay: Isothermal titration calorimetry, ligand into BorH
Experimental: as §1, with “Solutions” for “ITC experiments were performed using a VP-ITC isothermal titration calorimeter (MicroCal) in 20 mM HEPES pH 7.5, 350 mM NaCl, 1 mM ethylenediamine tetraacetic acid (EDTA) and 15% (v/v) glycerol. Solutions”
as §2, §3

[4] = tested on: BorH/FAD; assay: Isothermal titration calorimetry, Trp into BorH preincubated with FAD
Experimental: as §1, with “To test FADH2 binding to AbeH and BorH, FAD was reduced to FADH2 using sodium dithionite and stored under N2.” left out
ITC experiments were performed with reference power set to 10 μcal/s and Milli-Q water in the reference cell. […] Heats of dilution for all titrants were measured by titrating ligand into buffer for binary complex titrations, and by titrating ligand into a solution containing the other ligand but no protein for ternary complex titration. […]
Titrations were analyzed by manually integrating each injection, subtracting the heat of dilution, and carrying out nonlinear least-squares fit of the calorimetric binding data to a one-site model using Origin 7.0 (Origin Lab). […]

[5] = ITC, read-out: KD, binding to BorH, ITC

AbeH, sequence (F6LWA5 entry or part of it): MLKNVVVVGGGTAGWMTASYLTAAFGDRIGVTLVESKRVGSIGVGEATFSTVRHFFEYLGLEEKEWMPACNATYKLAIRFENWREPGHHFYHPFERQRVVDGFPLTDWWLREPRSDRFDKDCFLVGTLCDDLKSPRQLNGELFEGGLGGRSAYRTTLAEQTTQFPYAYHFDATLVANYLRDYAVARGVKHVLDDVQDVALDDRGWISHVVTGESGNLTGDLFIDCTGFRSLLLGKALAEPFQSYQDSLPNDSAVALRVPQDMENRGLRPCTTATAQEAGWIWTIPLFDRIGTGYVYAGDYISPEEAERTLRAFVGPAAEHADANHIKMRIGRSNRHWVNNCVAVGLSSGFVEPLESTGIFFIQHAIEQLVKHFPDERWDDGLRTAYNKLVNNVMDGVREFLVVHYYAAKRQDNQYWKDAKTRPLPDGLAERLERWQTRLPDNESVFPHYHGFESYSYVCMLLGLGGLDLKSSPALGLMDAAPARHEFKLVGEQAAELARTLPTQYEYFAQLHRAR
BorH, sequence (M9QSI0 1-529): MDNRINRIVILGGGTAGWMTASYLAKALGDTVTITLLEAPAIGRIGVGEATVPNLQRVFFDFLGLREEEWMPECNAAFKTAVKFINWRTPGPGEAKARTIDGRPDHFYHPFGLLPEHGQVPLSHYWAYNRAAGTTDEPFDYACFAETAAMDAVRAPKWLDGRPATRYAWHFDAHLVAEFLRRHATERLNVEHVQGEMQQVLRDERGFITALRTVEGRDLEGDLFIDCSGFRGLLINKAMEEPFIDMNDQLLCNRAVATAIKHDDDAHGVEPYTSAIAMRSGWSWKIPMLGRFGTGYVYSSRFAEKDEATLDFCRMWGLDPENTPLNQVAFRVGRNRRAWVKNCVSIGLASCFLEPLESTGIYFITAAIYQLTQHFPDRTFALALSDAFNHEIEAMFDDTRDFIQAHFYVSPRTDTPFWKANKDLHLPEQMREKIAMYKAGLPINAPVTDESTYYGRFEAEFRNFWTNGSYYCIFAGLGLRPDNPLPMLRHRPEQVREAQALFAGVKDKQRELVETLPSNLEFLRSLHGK
AbeH/Trp, sequence (F6LWA5 entry or part of it): as the sequence (F6LWA5 entry or part of it) above

Cc1cc2nc3c(=O)[nH]c(=O)nc-3n(C[C@H](O)[C@H](O)[C@H](O)COP(=O)(O)OP(=O)(O)OC[C@H]3O[C@@H](n4cnc5c(N)ncnc54)[C@H](O)[C@@H]3O)c2cc1C [FAD] was tested, and the Kd ([1]; ITC, read-out: KD, binding to AbeH, ITC) was 1.2 ± 0.4 µM, the “-TDS (-TΔS, ITC, Table S3)” value ([1]; cell AbeH) was -3.6 kcal/mol and the “DG (ΔG, ITC, Table S3)” value ([1]; cell AbeH) was -8.2 kcal/mol. For the same compound, the “DH (ΔH, ITC, Table S3)” value ([1]; cell AbeH) was -4.6 ± 0.4 kcal/mol, the “n (ITC, Table S3)” value ([1]; cell AbeH) was 0.93 ± 0.05 and the Kd ([2]; AbeH/FAD KD, FAD fluorescence quenching (Figure S10 B), in the presence of 0.3 mM Trp) was 3.1 µM. The Kd ([2]; KD, FAD binding to AbeH/Trp, FAD fluorescence, AbeH preincubated with Trp) was 7.7 ± 2.2 µM, the Kd [3, 5] was 13 ± 3.3 µM and the “-TDS (-TΔS, ITC, Table S3)” value ([3]; cell BorH) was 4.7 kcal/mol. For the same compound, the “DG (ΔG, ITC, Table S3)” value ([3]; cell BorH) was -6.7 kcal/mol, the “DH (ΔH, ITC, Table S3)” value ([3]; cell BorH) was -11.4 ± 0.4 kcal/mol and the “n (ITC, Table S3)” value ([3]; cell BorH) was 1.1 ± 0.4.
In the case of N[C@@H](Cc1c[nH]c2ccccc12)C(=O)O [Tryptophan, L-tryptophan], the “Trp affinity of AbeH lower than the FAD affinity” value [1] is reported as 500 ×, the Kd ([1]; KD (ITC, Table S3), cell AbeH) is reported as 833 µM and the Kd ([1]; KD for Trp/AbeH, ITC, one-site model, n fixed to 1) is reported as 800 µM. The “Heat of binding, Trp titrated into AbeH at low molar ratios” value ([1]; Trp:AbeH molar ratios between 0-9, 1.4 mM Trp into 43 μM AbeH) was “no significant heat of binding detected”, the “-TDS (-TΔS, ITC, Table S3)” value ([1]; cell AbeH) was 0.4 kcal/mol and the “DG (ΔG, ITC, Table S3)” value ([1]; cell AbeH) was -4.3 kcal/mol. For the same compound, the “DH (ΔH, ITC, Table S3)” value ([1]; cell AbeH) was -4.7 ± 0.4 kcal/mol, the “Trp affinity of BorH higher than that of AbeH” value [3] was 2 fold and the “Trp affinity of BorH lower than the FAD affinity” value [3] was 30 ×. The Kd [3, 5] was 430 ± 60 µM, the “-TDS (-TΔS, ITC, Table S3)” value ([3]; cell BorH) was -0.5 kcal/mol and the “DG (ΔG, ITC, Table S3)” value ([3]; cell BorH) was -4.6 kcal/mol. For the same compound, the “DH (ΔH, ITC, Table S3)” value ([3]; cell BorH) was -4.1 ± 0.3 kcal/mol, the Kd ([3]; cell BorH, read-out: KD (ITC, Table S3)) was 435 µM and the Kd ([3]; one-site model, n fixed to 1, read-out: KD for Trp/BorH, ITC) was 400 µM. For the same compound, the “Binding of Trp to preincubated BorH/FAD by ITC, in words” value ([4]; 21 mM Trp into 8 μM BorH preincubated with 5 mM FAD, listed as Trp) was “No binding was observed; also recorded: no evidence of Trp binding” and the “KD, Trp binding to BorH/FAD, ITC” value ([4]; BorH preincubated with FAD) was “no binding”.
